Here are results for four compounds from US8748121B2, “GSH adducts and uses thereof” (The Trustees of the University of Pennsylvania, priority 2006, dated 2014).

Like-named read-outs stand apart in the source and are kept apart here. Where only a bound is given, the exact number is not on record here.

Series [1] concerns EA.hy 926 endothelial cells. Description: Analysis of GSH adducts (TOG) in ONE-treated endothelial cells by stable isotope dilution LC-MRM/MS. Type of series: cell-based. Particulars: for detection of the adduct in cells treated with ONE: EA.hy 926 cells. On the procedure: EA.hy 926 cells were incubated until they reached 70-80% confluence (approximately 2×10^6 cells). DMEM was removed and replaced with FBS-free DMEM prior to treatment with varying concentrations of ONE dissolved in ethanol. The final concentration of ethanol in the culture medium was <0.1%. […] […] […] The cell lysate flow-through and cell media (40 μL of each) were each analyzed in duplicate by LC-MRM/MS using gradient system 4 on the Finnigan Quantum Ultra AM mass spectrometer. The internal standard [^2H3]-ONE-GSH adduct IIb was prepared from 9-[2H3]-ONE and GSH. Quantification of endogenous ONE-GSH adduct IIb was performed from the peak area ratios for the transition m/z 426 [ONE-GSH adduct IIb, protonated molecule (MH+)]→m/z 280 (MH+—CONHCH2CO2H—CONH2) compared to the transition m/z 429 (MH^+, [^2H3]-ONE-GSH adduct IIb internal standard)→m/z 283 (MH+—CONHCH2CO2H—CONH2). Intracellular and extracellular ONE-GSH adduct IIb concentrations were determined by interpolation from a standard curve prepared by adding a fixed amount of [^2H3]-ONE-GSH adduct IIb (10 ng) to increasing amounts of authentic ONE-GSH adduct IIb in the blank lysis buffer or incubation medium (range 0.2 ng/mL to 50 ng/mL). A typical regression line for a standard curve of area ratios compared with ONE-GSH adduct IIb concentrations [ng/mL] in the blank lysis buffer was y) 0.065x +0.0045 (r^2=0.9999).

The test system of series [2] is EA.hy 926 endothelial cells. Put plainly: Analysis of GSH adducts in endothelial cells subjected to oxidative stress (t-BuOOH/FeII). Format: cell-based. The settings on record: 10 μM t-BuOOH/500 μM FeII. Here is the method:
EA.hy 926 cells were incubated until they reached 70-80% confluence (approximately 2×10^6 cells). DMEM was removed and replaced with FBS-free DMEM prior to treatment with t-BuOOH (10 μM) and Fe^II (500 μM, ferrous sulfate). Cells were collected after 30 min, and intracellular GSH adduct concentrations were quantified by stable isotope dilution LC-MRM/MS as described above. Channels corresponding to the specific MRM transitions of the ONE-GSH adduct IIb and its trideuterated internal standard were monitored as described above. MRM transitions for HNE- and ONO-GSH adducts m/z 464 (MH^+)→m/z 308 (MH^+—C9H16O2) were also monitored. Quantification of diastereomeric HNE-GSH adducts was conducted by determining the ratio of the area of the HNE-GSH adducts signal to the area of [^2H3]-ONE-GSH adduct IIb. Intracellular concentrations of HNE-GSH adducts were determined with reference to a standard curve constructed in lysis buffer using authentic standards of unlabeled HNE-GSH adducts as described above for the ONE-GSH adduct IIb.

In series [3] the test system is glutathione-S-transferase (GST). Particulars: GSH 1 mM, ONE 1 mM. Here is the method: GSH (1 or 4 mM) was incubated with 4-ONE (1 mM or 100 μM) in 100 mM potassium phosphate buffer (200 μL) containing 1 mM EDTA (pH 6.5). Reactions were also conducted in the presence of equine or rat GST (10 or 100 units). Similar reactions were performed with 4 mM GSH and 2-[2 Hi]-ONE, 3-[2H]-ONE, or 2,3-[^2H2]-ONE (1 mM). Reaction mixtures were incubated at 37° C. for 1 h and then filtered through an Amicon Ultra-4 5,000 filter, and a 20 μL aliquot was analyzed by LC-MS using gradient system 1.
TOG and ONE were monitored by UV (224 nm) from the reaction between GSH (1 mM) and ONE (1 mM) in the presence of GST (10 or 100 units) for 24 h.

The conditions of series [4]: incubated with 1% TFA, 37° C., 24 h.
Protocol: A portion of ONE-GSH adduct IIb was then incubated with 1% TFA at 37° C. for 24 h. The reaction mixture (20 μL) was analyzed by LC-MS using gradient system 1.

As for `CCCCCc1c(SCC(NC(=O)CCC(N)C(=O)O)C(=O)NCC(=O)O)ccn1C(CCC(=O)NC(CS)C(=O)NCC(=O)O)C(=O)O` (stereo not drawn) [adduct Ia, 2-amino-4-[2-(1-{1-carboxy-3-[1-(carboxymethyl-carbamoyl)-2-mercapto-ethylcarbamoyl]-propyl}-2-pentyl-1H-pyrrol-3-ylsulfanyl)-1-(carboxymethyl-carbamoyl)-ethylcarbamoyl]-butyric acid], the “detection of the adduct in cells treated with ONE” value in series [1] is on record as “unable to detect”. Besides, in series [2], the “detection of the adduct in cells subjected to oxidative stress” value is listed as “unable to detect”.

Turning to `CCCCCC(=O)/C=C/C=O` [ONE, 4-oxo-2(E)-nonenal], the “reaction rate with 100 units of GST relative to 10 units” value in series [3] was 6 times. In addition, the “ONE still left in the reaction mixture” value in series [3] (10 units of GST, after 24 h) amounted to 6%. The same compound showed an ONE consumed in series [3] (10 units of GST, by 4 h) of 58%. Besides, the “consumption of ONE” value in series [3] (100 units of GST, after 4 h) turned out to be 93%. For the same compound, in series [3] (100 units of GST, after 24 h), the ONE remaining entry is given as “not detectable”. In addition, in series [3] (100 units of GST, by 40 min), the ONE consumed worked out at 52%. In addition, the “ONE concentration at which the cells were no longer viable” value in series [1] (EA.hy 926 endothelial cells) was > 20 /<M. Moreover, in series [1] (LC-MRM/MS), the “ONE concentration at which TOG was detected in the extracellular milieu” value is no less than 1 µM and the “ONE concentration at which intracellular TOG could be quantified” value is reported as ≥ 5 /iM.

For the compound “(2S,7R)-7-[iV-(carboxymethyl)carbamoyl]-5-oxo-12-pentyl-9-thia-1,6-diazabicyclo[8.2.1]trideca-10(13),11-diene-2-carboxylic acid [TOG]”, the “incubation time to maximal formation of TOG” value in series [3] (10 units of GST) came out at 24 h. Besides, in series [3] (100 units of GST), the “incubation time to maximal formation of TOG” value is on record as 4 h. Besides, in series [1] (20 fiM ONE for 30 min), the “TOG as share of the intracellular total GSH at the start of the incubation (10 nmol)” value amounted to 15.4% and the “total TOG” value worked out at 1.54 nmol. The “intracellular concentration of TOG” value in series [1] (after the addition of 20 μM ONE (printed 20 μL; 20/<M)) was 46.1 µM. In series [1] (after the addition of ONE), the intracellular TOG, maximum of dose-dependent increase was determined as 46.1 pmol/2×10^6 cells. Besides, the “concentration of intracellular TOG” value in series [1] (cells incubated with 5 fiU ONE for 0.5 h) came out at 2.8 µM. Moreover, in series [4], the “conversion to dehydrated product (adduct IV)” value is recorded as “quantitative conversion”.

As to `CCCCCc1c2ccn1C(C(=O)O)CCC(=O)NC(C(=O)NCC(=O)O)CSc1ccn(c1CCCCC)C(C(=O)O)CCC(=O)NC(C(=O)NCC(=O)O)CS2` (stereo not drawn) [adduct III, 7,19-bis-(carboxymethyl-carbamoyl)-5,17-dioxo-25,26-dipentyl-9,21-dithia-1,6,13,18-tetraaza-tricyclo[20.2.1.110.13]hexacosa-10(26),11,22(25),23-tetraene-2,14-dicarboxylic acid], the “detection of the adduct in cells treated with ONE” value in series [1] was “unable to detect”. Further, the “detection of the adduct in cells subjected to oxidative stress” value in series [2] was “unable to detect”.
